Measurements taken from ChEMBL document CHEMBL4002573, “New insights into the SAR and drug combination synergy of 2-(quinolin-4-yloxy)acetamides against Mycobacterium tuberculosis” (Eur J Med Chem, 2017).
≈ marks a conversion by molar mass, not a printed value.

How the values were obtained:
[1] = Permeability of the compound at 1 uM […] by PAMPA; format: physicochemical; details: read-out: permeability
[2] = Cytotoxicity against human HepG2 cells assessed as viability at 10 uM after 72 hrs by MTT assay relative to control; format: cell-based; details: read-out: Activity
[3] = tested on: Mycobacterium tuberculosis; format: functional; details: H37Rv, 168 h
[4] = tested on: Mycobacterium tuberculosis; assay: microbe, parasite or virus in culture; details: CDCT-4 (1105/09), 168 h
Description: Antimycobacterial activity against Mycobacterium tuberculosis CDCT-4 (1105/09) clinical isolate after 7 days by resazurin reduction microplate assay

Cytochrome P450 1A2 = target: T1, Cytochrome P450 1A2 (Homo sapiens, UniProt P05177); assay: Inhibition of CYP1A2 in human liver microsomes using phenacetin as substrate by HPLC-MS/MS method; format: ADME
T1 sequence (P05177 whole entry): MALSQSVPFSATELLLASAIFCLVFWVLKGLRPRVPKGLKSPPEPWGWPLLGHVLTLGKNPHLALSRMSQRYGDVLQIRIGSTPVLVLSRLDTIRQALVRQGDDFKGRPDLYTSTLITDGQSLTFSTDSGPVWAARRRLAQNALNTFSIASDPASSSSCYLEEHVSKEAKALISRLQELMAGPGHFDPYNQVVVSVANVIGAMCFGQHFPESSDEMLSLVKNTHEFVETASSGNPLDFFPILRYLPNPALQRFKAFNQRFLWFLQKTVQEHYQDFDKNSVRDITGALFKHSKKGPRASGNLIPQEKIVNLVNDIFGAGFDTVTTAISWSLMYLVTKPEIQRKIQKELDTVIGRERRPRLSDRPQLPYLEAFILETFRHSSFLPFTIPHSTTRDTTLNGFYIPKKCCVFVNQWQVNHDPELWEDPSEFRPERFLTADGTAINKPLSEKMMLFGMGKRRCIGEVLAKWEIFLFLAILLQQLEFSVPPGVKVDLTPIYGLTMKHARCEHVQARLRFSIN

[5] = tested on: Mycobacterium tuberculosis; assay: Potency index, ratio of isoniazid MIC to test compound MIC for Mycobacterium tuberculosis H37Rv; format: functional
[6] = Cytotoxicity against African green monkey Vero cells assessed as viability at 10 uM after 72 hrs by MTT assay relative to control; format: cell-based; details: chlorocebus sabaeus, read-out: Activity
[7] = tested on: Mycobacterium tuberculosis; format: functional; details: H37Rv, 168 h; remark: listed apart in the source
[8] = Thermodynamic solubility of the compound in acetate buffer at pH 4 after 24 hrs by HPLC method; format: physicochemical; details: read-out: Therm_solubility
Cytochrome P450 2C9 = Cytochrome P450 2C9 (Homo sapiens, UniProt P11712); assay: Inhibition of CYP2C9 in human liver microsomes using tolbutamide as substrate by HPLC-MS/MS method; format: ADME
Sequence of Cytochrome P450 2C9 (P11712 whole entry): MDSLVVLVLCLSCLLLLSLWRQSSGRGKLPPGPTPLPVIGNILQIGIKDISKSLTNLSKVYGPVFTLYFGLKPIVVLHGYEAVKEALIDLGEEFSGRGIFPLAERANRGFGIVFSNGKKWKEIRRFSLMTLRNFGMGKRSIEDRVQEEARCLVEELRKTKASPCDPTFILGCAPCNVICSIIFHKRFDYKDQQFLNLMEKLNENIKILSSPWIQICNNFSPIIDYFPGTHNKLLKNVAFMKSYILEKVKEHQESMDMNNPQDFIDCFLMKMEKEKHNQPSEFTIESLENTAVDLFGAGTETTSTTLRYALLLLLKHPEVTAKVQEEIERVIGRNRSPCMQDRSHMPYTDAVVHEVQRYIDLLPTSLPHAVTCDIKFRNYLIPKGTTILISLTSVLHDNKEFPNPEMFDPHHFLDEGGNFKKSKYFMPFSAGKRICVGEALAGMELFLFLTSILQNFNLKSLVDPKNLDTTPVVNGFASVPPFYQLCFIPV

Cytochrome P450 2C19 = Cytochrome P450 2C19 (Homo sapiens, UniProt P33261); assay: Inhibition of CYP2C19 in human liver microsomes using S-(+)-mephenytoin as substrate by HPLC-MS/MS method; format: ADME
Sequence of Cytochrome P450 2C19 (P33261 whole entry): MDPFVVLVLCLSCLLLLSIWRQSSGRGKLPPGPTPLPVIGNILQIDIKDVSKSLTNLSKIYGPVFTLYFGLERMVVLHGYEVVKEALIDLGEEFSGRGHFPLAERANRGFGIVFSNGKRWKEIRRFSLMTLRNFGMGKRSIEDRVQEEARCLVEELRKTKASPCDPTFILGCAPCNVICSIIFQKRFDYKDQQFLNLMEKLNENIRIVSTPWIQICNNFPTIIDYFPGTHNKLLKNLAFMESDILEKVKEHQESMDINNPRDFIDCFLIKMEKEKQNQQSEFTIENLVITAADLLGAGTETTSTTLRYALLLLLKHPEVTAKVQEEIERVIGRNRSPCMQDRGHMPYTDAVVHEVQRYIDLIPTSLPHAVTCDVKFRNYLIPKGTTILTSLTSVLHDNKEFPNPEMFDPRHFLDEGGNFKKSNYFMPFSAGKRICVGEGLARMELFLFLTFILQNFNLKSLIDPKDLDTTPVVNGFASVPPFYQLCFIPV

[9] = Cytotoxicity against human HaCaT cells assessed as viability at 10 uM after 72 hrs by MTT assay relative to control; format: cell-based; details: read-out: Activity
[10] = tested on: Mycobacterium tuberculosis; assay: microbe, parasite or virus in culture; details: PE-003, 168 h
Description: Antimycobacterial activity against Mycobacterium tuberculosis PE-003 clinical isolate after 7 days by resazurin reduction microplate assay

[11] = tested on: Mycobacterium tuberculosis; format: functional; details: H37Rv, 168 h; remark: listed apart in the source
[12] = tested on: Mycobacterium tuberculosis; format: functional, H37Rv
Cytochrome P450 3A4 = Cytochrome P450 3A4 (Homo sapiens, UniProt P08684); assay: Inhibition of CYP3A4 in human liver microsomes using testosterone as substrate by HPLC-MS/MS method; format: ADME
Sequence of Cytochrome P450 3A4 (P08684 whole entry): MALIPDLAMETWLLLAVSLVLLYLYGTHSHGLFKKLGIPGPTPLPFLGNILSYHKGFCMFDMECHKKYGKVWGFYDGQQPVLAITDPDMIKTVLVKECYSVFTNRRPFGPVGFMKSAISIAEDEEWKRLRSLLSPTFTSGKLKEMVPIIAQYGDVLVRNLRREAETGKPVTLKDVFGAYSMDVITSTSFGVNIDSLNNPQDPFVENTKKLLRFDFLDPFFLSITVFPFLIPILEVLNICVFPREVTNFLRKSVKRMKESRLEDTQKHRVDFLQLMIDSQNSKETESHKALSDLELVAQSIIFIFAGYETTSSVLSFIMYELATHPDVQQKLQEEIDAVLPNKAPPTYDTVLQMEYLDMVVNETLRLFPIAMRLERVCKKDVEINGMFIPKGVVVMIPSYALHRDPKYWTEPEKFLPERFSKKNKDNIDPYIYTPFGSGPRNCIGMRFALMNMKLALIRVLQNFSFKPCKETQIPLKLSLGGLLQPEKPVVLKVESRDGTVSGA

[13] = tested on: Mycobacterium tuberculosis; assay: Bactericidal activity against Mycobacterium tuberculosis H37Rv infected in mouse RAW264.7 cells assessed as bacterial colony formation at 5 uM after 5 days (reference value: 4.1 to 4.73 log10CU); format: functional
[14] = tested on: Mycobacterium tuberculosis; format: functional; details: H37Rv, 168 h; remark: listed apart in the source
[15] = Kinetic solubility in PBS at pH 7.4; format: physicochemical; details: read-out: Kinetic_solubility
[16] = tested on: Mycobacterium tuberculosis; format: functional; details: H37Rv, 168 h; remark: listed apart in the source
Cytochrome P450 2D6 = Cytochrome P450 2D6 (Homo sapiens, UniProt P10635); assay: Inhibition of CYP2D6 in human liver microsomes using dextromethorphan as substrate by HPLC-MS/MS method; format: ADME
Sequence of Cytochrome P450 2D6 (P10635 whole entry): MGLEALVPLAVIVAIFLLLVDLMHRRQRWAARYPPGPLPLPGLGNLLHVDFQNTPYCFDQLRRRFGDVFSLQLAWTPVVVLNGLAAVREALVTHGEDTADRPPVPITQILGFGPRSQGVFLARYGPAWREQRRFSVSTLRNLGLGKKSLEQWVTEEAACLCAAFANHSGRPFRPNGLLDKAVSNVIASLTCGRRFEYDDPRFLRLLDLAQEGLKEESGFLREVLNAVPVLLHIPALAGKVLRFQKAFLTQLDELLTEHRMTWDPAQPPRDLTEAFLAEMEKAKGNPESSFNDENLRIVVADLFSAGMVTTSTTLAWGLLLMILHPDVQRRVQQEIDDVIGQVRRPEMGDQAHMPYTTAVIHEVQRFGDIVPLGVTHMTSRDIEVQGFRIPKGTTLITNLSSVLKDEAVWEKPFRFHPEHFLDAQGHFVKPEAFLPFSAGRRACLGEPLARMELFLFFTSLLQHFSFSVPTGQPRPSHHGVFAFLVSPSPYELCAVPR

[17] = Cytotoxicity against mouse RAW264.7 cells assessed as viability at 10 uM after 72 hrs by MTT assay relative to control; format: cell-based; details: read-out: Activity
[18] = tested on: Mycobacterium tuberculosis; assay: microbe, parasite or virus in culture; details: H37Rv, 168 h
Description: Antimycobacterial activity against Mycobacterium tuberculosis H37Rv after 7 days by resazurin reduction microplate assay

[19] = tested on: Mycobacterium tuberculosis; format: functional; details: H37Rv, 168 h; remark: listed apart in the source
[20] = tested on: Mycobacterium tuberculosis; assay: Potency index, ratio of moxifloxacin MIC to test compound MIC for Mycobacterium tuberculosis PE-003 clinical isolate; format: functional
[21] = Thermodynamic solubility of the compound in 0.1N HCl at pH 1.5 after 24 hrs by HPLC method; format: physicochemical; details: read-out: Therm_solubility
[22] = Cytotoxicity against mouse N9 cells assessed as viability at 10 uM after 72 hrs by MTT assay relative to control; format: cell-based; details: read-out: Activity
[23] = Kinetic solubility in water at pH 5.8; format: physicochemical; details: read-out: Kinetic_solubility
[24] = Intrinsic clearance in human liver S9 fraction at 2 uM by HPLC-MS/MS analysis; format: ADME, tissue-based
Cytochrome P450 2E1 = Cytochrome P450 2E1 (Homo sapiens, UniProt P05181); assay: Inhibition of CYP2E1 in human liver microsomes using chlorzoxazone as substrate by HPLC-MS/MS method; format: ADME
Sequence of Cytochrome P450 2E1 (P05181 whole entry): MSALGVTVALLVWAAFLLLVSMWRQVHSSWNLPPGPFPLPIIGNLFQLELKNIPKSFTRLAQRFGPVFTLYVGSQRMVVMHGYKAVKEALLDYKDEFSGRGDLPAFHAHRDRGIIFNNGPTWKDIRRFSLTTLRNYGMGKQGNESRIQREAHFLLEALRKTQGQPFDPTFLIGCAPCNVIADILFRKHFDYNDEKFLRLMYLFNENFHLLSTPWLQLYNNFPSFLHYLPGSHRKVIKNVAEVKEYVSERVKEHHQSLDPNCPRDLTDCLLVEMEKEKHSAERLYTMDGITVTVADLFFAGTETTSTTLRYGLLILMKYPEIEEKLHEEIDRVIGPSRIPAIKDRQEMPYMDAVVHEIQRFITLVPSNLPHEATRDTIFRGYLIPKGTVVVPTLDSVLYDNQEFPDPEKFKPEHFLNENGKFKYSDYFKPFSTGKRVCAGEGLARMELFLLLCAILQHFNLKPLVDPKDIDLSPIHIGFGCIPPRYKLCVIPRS

[25] = Half life in human liver S9 fraction at 2 uM by HPLC-MS/MS analysis; format: ADME, tissue-based

`CCCCCc1ccc(NC(=O)COc2cc(C)nc3ccc(OC)cc23)cc1` showed a Papp at 1 µM [1] of 1.7 ×10⁻⁶ cm/s, a viability at 72 h, 10 µM [2] of 83% and an MIC [3] of 20 ng/mL (≈ 0.051 µM). It also gave an MIC [4] of less than 0.05 µM, an IC50 (Cytochrome P450 1A2) greater than 30 µM and a Ratio [5] of 292. For the same compound, the viability at 72 h, 10 µM [6] was 97%, the MIC [7] was 5 ng/mL (≈ 0.0127 µM) and the solubility thermodynamic at 24 h [8] was 20 µM (≈ 7.85 µg/mL). For the same compound, the IC50 (Cytochrome P450 2C9) was greater than 30 µM, the IC50 (Cytochrome P450 2C19) was greater than 30 µM and the viability at 72 h, 10 µM [9] was 105%. It also gave an MIC [10] of 0.001 µM (≈ 0.000392 µg/mL), an MIC [11] of 2.5 ng/mL (≈ 0.00637 µM) and a Ratio [12] of 2. For the same compound, the IC50 (Cytochrome P450 3A4) was greater than 30 µM, the Activity [13] was 3.23 log10CFU and the MIC [14] was 10 ng/mL (≈ 0.0255 µM). For the same compound, the solubility kinetic [15] was 4.7 µM (≈ 1.84 µg/mL), the MIC [16] was 10 ng/mL (≈ 0.0255 µM) and the IC50 (Cytochrome P450 2D6) was greater than 30 µM. The viability at 72 h, 10 µM [17] was 86%, the MIC [18] was 0.005 to 0.01 µM (≈ 0.00196 to 0.00392 µg/mL) and the MIC [19] was 1 ng/mL (≈ 0.00255 µM). For the same compound, the Ratio [20] was 100, the solubility thermodynamic at 24 h [21] was 30 µM (≈ 11.8 µg/mL) and the viability at 72 h, 10 µM [22] was 110%. The solubility kinetic [23] was 2.6 µM (≈ 1.02 µg/mL), the CLhep predicted at 2 µM [24] was 14.8 mL/min/kg and the IC50 (Cytochrome P450 2E1) was greater than 30 µM. The half-life at 2 µM [25] was 19.4 min.
